# Results as given in US9902696B2, “1,4-substituted piperidine derivatives” (Cephalon, Inc., priority 2015, dated 2018).
# Structures can show the parent of a compound that is named as a salt.
# Biological target: T1, recombinant human baculovirus-expressed GST-tagged FASN (Homo sapiens, UniProt P49327)
# T1 construct: GST
# Experiment: FASN enzyme activity assay, fluorescence-based detection of CoA with CPM
# Assay type: biochemical
# Details: 5 nM FASN, 150 μM NADPH, 10 μM acetyl-CoA, 25 μM malonyl-CoA, 90 minutes incubation; read-out: IC50 data for Additional Compounds of Formulae I-V(a): Activity
# Summary of the method: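 Human GST-tagged FASN, baculovirus-expressed (5 nM), in 50 mM HEPES pH 7.5 with 150 μM NADPH, 10 μM acetyl-CoA, 25 μM malonyl-CoA, 0.5% DMSO; malonyl-CoA-started, 90 min. Released CoA detected with CPM (50 μM dilution), 30 min, fluorescence ex 390/em 530. IC50 from variable-slope sigmoidal fit of % inhibition versus log concentration.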
# T1 sequence (P49327 whole entry): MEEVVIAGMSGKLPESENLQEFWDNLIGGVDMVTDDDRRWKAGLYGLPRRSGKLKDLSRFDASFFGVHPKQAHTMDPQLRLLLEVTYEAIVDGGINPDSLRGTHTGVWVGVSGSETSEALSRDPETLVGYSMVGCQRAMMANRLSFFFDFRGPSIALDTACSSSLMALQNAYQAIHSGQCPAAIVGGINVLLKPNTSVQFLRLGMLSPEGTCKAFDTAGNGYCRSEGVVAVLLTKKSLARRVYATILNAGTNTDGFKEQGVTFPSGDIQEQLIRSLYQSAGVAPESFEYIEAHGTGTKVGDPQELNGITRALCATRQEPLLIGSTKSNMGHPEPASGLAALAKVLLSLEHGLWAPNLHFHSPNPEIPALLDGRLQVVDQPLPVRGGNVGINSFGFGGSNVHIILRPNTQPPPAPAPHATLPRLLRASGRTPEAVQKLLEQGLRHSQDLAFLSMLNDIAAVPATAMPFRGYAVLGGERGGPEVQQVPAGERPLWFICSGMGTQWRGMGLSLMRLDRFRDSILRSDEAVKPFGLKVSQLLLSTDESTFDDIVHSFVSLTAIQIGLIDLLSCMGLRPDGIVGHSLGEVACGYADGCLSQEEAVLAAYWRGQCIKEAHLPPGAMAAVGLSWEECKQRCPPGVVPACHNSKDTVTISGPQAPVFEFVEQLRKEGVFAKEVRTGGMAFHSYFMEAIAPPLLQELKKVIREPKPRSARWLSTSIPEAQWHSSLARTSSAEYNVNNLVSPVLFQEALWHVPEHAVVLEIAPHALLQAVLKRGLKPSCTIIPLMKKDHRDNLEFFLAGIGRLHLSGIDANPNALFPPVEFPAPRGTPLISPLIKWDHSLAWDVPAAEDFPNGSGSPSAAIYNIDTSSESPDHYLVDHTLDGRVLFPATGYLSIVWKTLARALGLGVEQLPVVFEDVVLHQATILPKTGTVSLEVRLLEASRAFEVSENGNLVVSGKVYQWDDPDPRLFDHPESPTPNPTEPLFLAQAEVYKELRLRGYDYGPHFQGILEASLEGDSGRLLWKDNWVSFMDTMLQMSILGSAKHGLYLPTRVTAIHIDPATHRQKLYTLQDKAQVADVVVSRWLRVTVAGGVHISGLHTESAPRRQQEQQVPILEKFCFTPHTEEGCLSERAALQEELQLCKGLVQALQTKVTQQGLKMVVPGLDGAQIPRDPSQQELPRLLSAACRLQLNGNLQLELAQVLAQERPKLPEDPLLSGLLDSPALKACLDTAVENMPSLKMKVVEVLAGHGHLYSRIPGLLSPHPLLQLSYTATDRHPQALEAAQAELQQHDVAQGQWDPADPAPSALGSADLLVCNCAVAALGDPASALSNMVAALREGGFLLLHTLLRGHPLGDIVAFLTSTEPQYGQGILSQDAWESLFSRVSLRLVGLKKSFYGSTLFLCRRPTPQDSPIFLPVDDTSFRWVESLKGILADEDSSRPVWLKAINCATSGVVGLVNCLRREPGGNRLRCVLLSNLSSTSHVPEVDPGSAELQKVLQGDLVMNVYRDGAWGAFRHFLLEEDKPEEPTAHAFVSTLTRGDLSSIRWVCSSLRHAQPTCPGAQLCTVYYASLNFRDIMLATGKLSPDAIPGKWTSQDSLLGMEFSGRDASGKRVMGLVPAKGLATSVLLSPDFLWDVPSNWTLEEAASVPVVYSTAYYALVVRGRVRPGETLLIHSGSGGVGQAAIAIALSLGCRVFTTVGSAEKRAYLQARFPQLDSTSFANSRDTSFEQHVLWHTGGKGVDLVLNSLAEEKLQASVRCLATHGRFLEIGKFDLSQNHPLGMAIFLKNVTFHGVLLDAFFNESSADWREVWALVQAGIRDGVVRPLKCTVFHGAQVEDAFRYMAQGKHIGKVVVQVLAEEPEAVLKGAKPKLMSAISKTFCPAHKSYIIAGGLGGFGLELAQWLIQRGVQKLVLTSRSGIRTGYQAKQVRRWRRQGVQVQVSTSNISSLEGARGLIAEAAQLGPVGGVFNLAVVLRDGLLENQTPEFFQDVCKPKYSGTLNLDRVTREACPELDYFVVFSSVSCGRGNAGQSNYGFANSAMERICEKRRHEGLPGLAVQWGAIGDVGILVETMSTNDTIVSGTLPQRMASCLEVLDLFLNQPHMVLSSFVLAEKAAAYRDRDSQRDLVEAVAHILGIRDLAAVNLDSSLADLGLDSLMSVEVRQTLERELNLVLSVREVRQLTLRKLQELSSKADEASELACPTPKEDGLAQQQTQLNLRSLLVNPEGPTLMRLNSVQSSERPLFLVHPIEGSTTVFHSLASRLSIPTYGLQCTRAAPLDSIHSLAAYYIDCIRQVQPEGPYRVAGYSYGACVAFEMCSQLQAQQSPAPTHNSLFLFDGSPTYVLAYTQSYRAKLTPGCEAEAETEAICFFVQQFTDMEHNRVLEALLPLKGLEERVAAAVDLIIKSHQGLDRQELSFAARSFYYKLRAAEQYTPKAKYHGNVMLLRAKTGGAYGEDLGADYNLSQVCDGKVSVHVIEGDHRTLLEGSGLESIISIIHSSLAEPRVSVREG
row,IC50 [µM],Compound
1,1 to 10,"Cc1c(-c2ccc(OC3CCN(C(=O)NOC(C)C)CC3)cc2)ccc2cccnc12 [Example 543, N-Isopropoxy-4-[4-(8-methyl-7-quinolyl)phenoxy]piperidine-1-carboxamide]"
2,0.1 to 0.999,"Cc1c(-c2ccc(OC3CCN(C(=O)N4CCN(C)CC4)CC3)cc2)ccc2nccn12 [Example 598, [4-[4-(5-Methylimidazo[1,2-a]pyridin-6-yl)phenoxy]-1-piperidyl]-(4-methylpiperazin-1-yl)methanone]"
3,0.001 to 0.099,"Cc1c(-c2ccc(OC3CCN(C(=O)OC4CCOC4)CC3)cc2)ccc2cccnc12 (stereo not drawn) [Example 559, Tetrahydrofuran-3-yl 4-[4-(8-methyl-7-quinolyl)phenoxy]piperidine-1-carboxylate]"
4,1 to 10,"Cc1c(-c2ccc(OC3CCN(C(=O)N4CCN(C)CC4)CC3)cc2)ccc2cccnc12 [Example 533, (4-Methyllpiperazin-1-yl)-[4-[4-(8-methyl-7-quinolyl)phenoxy]-1-piperidyl]methanone, HCl]"
5,1 to 10,"CCONC(=O)N1CCC(Oc2ccc(-c3ccc4nccn4c3Cl)cc2)CC1 [Example 573, 4-[4-(5-Chloroimidazo[1,2-a]pyridin-6-yl)phenoxy]-N-ethoxy-piperidine-1-carboxamide]"
6,0.001 to 0.099,"Cc1c(-c2ccc(OC3CCN(C(=O)NCC4CC4)CC3)cc2)ccc2cccnc12 [Example 540, N-(Cyclopropylmethyl)-4-[4-(8-methyl-7-quinolyl)phenoxy]piperidine-1-carboxamide, HCl]"

# Same assay, conditions: 5 nM FASN, 150 μM NADPH, 10 μM acetyl-CoA, 25 μM malonyl-CoA, 90 minutes incubation; read-out: IC50 data for Compounds of Formulae I-V/V(a): Activity
row,IC50 [µM],Compound
1,1 to 10,"CCC(=O)N1CCC(Oc2ccc(-c3ccc(Oc4ccccc4)cc3)cc2)CC1 [Example 508, 1-[4-(4′-Phenoxybiphenyl-4-yloxy)-piperidin-1-yl]-propan-1-one]"
2,0.001 to 0.099,"O=C([C@H]1CCCO1)N1CCC(Oc2ccc(-c3cnc4ccsc4c3)cc2)CC1 [Example 263, (R)-Tetrahydrofuran-2-yl-[4-(4-thieno[3,2-b]pyridin-6-yl-phenoxy)-piperidin-1-yl]-methanone, TFA salt]"
3,1 to 10,"COC(=O)N1CCC(Oc2ccc(-c3cnc4ccccc4c3)cc2F)CC1 [Example 15, 4-(2-Fluoro-4-quinolin-3-yl-phenoxy)-piperidine-1-carboxylic acid methyl ester]"
4,0.001 to 0.099,"Cc1c(-c2ccc(O[C@H]3C[C@H]4CC[C@@H](C3)N4C(=O)[C@H]3CCCO3)cc2)ccc2cccnc12 [Example 371, {endo-3-[4-(8-Methylquinolin-7-yl)-phenoxy]-8-aza-bicyclo[3.2.1]oct-8-yl}-(R)-tetrahydrofuran-2-yl-methanone, HCl]"
5,0.001 to 0.099,"CCC(=O)N1CCC(Oc2ccc(-c3cnc4cc(F)ccc4c3)cc2)CC1 [Example 478, 1-{4-[4-(7-Fluoroquinolin-3-yl)-phenoxy]-piperidin-1-yl}-propan-1-one]"
6,0.001 to 0.099,"O=C([C@H]1CCCO1)N1CCC(Oc2ccc(-c3ccc4cc(Cl)cnc4c3)cc2)CC1 [Example 265, {4-[4-(3-Chloroquinolin-7-yl)-phenoxy]-piperidin-1-yl}-(R)-tetrahydro-furan-2-yl-methanone, TFA salt]"
7,0.001 to 0.099,"CC(=O)C(=O)N1CCC(Oc2ccc(-c3cnc4ccccc4c3C)cc2)CC1 [Example 72, 1-{4-[4-(4-Methylquinolin-3-yl)-phenoxy]-piperidin-1-yl}-propane-1,2-dione]"
8,0.001 to 0.099,"CONC(=O)N1CCC(Oc2ccc(-c3ccc4cccnc4c3C)cc2)CC1 [Example 91, N-methoxy-4-[4-(8-methyl-7-quinolyl)phenoxy]piperidine-1-carboxamide]"
9,1 to 10,"Cc1c(-c2ccc(OC3CCN(C(=O)C4CCC4)CC3)cc2)cccc1-c1ccccn1 [Example 408, Cyclobutyl-[4-(2′-methyl-3′-pyridin-2-yl-biphenyl-4-yloxy)-piperidin-1-yl]-methanone, TFA salt]"
10,1 to 10,"Cc1cnc2cc(-c3ccc(OC4CCN(C(=O)[C@H]5CCCO5)CC4)cc3)ccc2c1 [Example 281, {4-[4-(3-Methylquinolin-7-yl)-phenoxy]-piperidin-1-yl}-(R)-tetrahydro-furan-2-yl-methanone]"
11,0.1 to 0.999,"C[C@@H]1C[C@H](C(=O)N2CCC(Oc3ccc(-c4cnc5ccccc5c4)cc3)CC2)O[C@@H]1C [Example 156, ((2R,4R,5R)/(2S,4S,5 S)-4,5-Dimethyl-tetrahydrofuran-2-yl)-[4-(4-quinolin-3-yl-phenoxy)-piperidin-1-yl]-methanone, HCL]"
12,0.001 to 0.099,"Cc1c(-c2ccc(OC3CCN(C(=O)C4CC4)CC3)c(F)c2)ccc2cccnc12 [Example 227, Cyclopropyl-{4-[2-fluoro-4-(8-methylquinolin-7-yl)-phenoxy]-piperidin-1-yl}-methanone]"
13,0.001 to 0.099,"Cc1c(-c2ccc(OC3CCN(C(=O)[C@H]4CCCO4)CC3)c(F)c2)cnc2ccccc12 [Example 230, {4-[2-Fluoro-4-(4-methylquinolin-3-yl)-phenoxy]-piperidin-1-yl}-(R)-tetrahydrofuran-2-yl-methanone]"
14,1 to 10,"CCC(=O)N1CCC(N(C)C(=O)c2ccc(-c3ccc4cnccc4c3)cc2F)CC1 [Example 158, 2-Fluoro-4-isoquinolin-6-yl-N-methyl-N-(1-propionyl-piperidin-4-yl)-benzamide]"
15,1 to 10,"CCC(=O)N1CCC(Oc2ccc(-c3cnc4cc(OC)c(F)cc4c3)cc2)CC1 [Example 444, 1-{4-[4-(6-Fluoro-7-methoxyquinolin-3-yl)-phenoxy]-piperidin-1-yl}-propan-1-one]"
16,1 to 10,"O=C([C@H]1CCCO1)N1CCC(Oc2ccc(-c3ccc4nccn4c3Cl)cc2)CC1 [Example 294, {4-[4-(5-Chloroimidazo[1,2-a]pyridin-6-yl)-phenoxy]-piperidin-1-yl}-(R)-tetrahydrofuran-2-yl-methanone]"
17,1 to 10,"CC(C)C(=O)N1CCC(Oc2ccc(-c3cnc4cccnc4c3)cc2)CC1 [Example 13, 2-Methyl-1-[4-(4-1,5-naphthyridin-3-yl-phenoxy)-piperidin-1-yl]-propan-1-one]"

row,IC50 [µM],Compound
1,1 to 10,"O=C(C1CC1)N1CCC(Oc2ccc(-c3cnc4ccccc4c3)cc2Cl)CC1 [Example 193, [4-(2-Chloro-4-quinolin-3-yl-phenoxy)-piperidin-1-yl]-cyclopropyl-methanone]"
2,0.1 to 0.999,"O=C(C1CC1)N1CCC(Oc2ccc(-c3cnc4ccccc4n3)cc2)CC1 [Example 67, Cyclopropyl-[4-(4-quinoxalin-2-yl-phenoxy)-piperidin-1-yl]-methanone]"
3,1 to 10,"CCC(=O)N1CCC(Oc2ccc(-c3ccc4cnc(C)cc4c3)cc2)CC1 [Example 430, 1-{4-[4-(3-Methylisoquinolin-6-yl)-phenoxy]-piperidin-1-yl}-propan-1-one]"
4,0.1 to 0.999,"CC(C)C(=O)N1CCC(Oc2ccc(-c3ccc4cccnc4c3)cc2)CC1 [Example 3, 2-Methyl-1-[4-(4-quinolin-7-yl-phenoxy)-piperidin-1-yl]-propan-1-one]"
5,0.1 to 0.999,"CCC(=O)N1CCC(Oc2ccc(-c3cnc4ccccc4c3OC)cc2)CC1 [Example 50, 1-{4-[4-(4-Methoxyquinolin-3-yl)-phenoxy]-piperidin-1-yl}-propan-1-one]"
6,1 to 10,"CCC(=O)N1CCC(Oc2ccc(-c3cc(C)c4nccn4c3)cc2)CC1 [Example 284, 1-{4-[4-(8-Methylimidazo[1,2-a]pyridin-6-yl)-phenoxy]-piperidin-1-yl}-propan-1-one]"
7,0.001 to 0.099,"Cc1c(-c2ccc(OC3CCN(C(=O)C4CCC4)CC3)cc2)cnc2ccccc12 [Example 62, Cyclobutyl-{4-[4-(4-methylquinolin-3-yl)-phenoxy]-piperidin-1-yl}-methanone]"
8,1 to 10,"CC(C)C(=O)N1CCC(Oc2ccc(-c3ccc4cccnc4c3)cc2Cl)CC1 [Example 195, 1-[4-(2-Chloro-4-quinolin-7-yl-phenoxy)-piperidin-1-yl]-2-methyl-propan-1-one]"
9,0.001 to 0.099,"CCC(=O)N1CCC(Oc2ccc(-c3ccc4cccnc4c3)cc2)CC1 [Example 4, 1-[4-(4-Quinolin-7-yl-phenoxy)-piperidin-1-yl]-propan-1-one]"
10,1 to 10,"O=C(C1CC1)N1CCC(Oc2ccc(-c3ccc4nnc(C(F)(F)F)n4c3)cc2)CC1 [Example 160, Cyclopropyl-{4-[4-(3-trifluoromethyl-1,2,4-triazolo[4,3-a]pyridin-6-yl)-phenoxy]-piperidin-1-yl}-methanone, HCl]"
11,1 to 10,"CCC(=O)N1CCC(Oc2ccc(-c3ccc4cccnc4c3OCCN3CCOCC3)cc2)CC1 [Example 171, 1-(4-{4-[8-(2-Morpholin-4-yl-ethoxy)-quinolin-7-yl]-phenoxy}-piperidin-1-yl)-propan-1-one, 2HCl]"
12,0.001 to 0.099,"O=C1CC[C@H](C(=O)N2CCC(Oc3ccc(-c4cnc5ccccc5c4)cc3)CC2)O1 [Example 120, (R)-5-[4-(4-Quinolin-3-yl-phenoxy)-piperidine-1-carbonyl]-dihydrofuran-2-one, HCl]"
13,0.001 to 0.099,"N#Cc1ccc(-c2ccc(OC3CCN(C(=O)[C@H]4CCCO4)CC3)cc2)cc1 [Example 244, 4′-[1-((R)-Tetrahydrofuran-2-carbonyl)-piperidin-4-yloxy]-biphenyl-4-carbonitrile]"
14,0.001 to 0.099,"CCC(=O)N1CCC(Oc2ccc(-c3cnc4ccccc4c3)cc2F)CC1 [Example 6, 1-[4-(2-Fluoro-4-quinolin-3-yl-phenoxy)piperidin-1-yl]propan-1-one]"
15,0.001 to 0.099,"Cc1c(-c2ccc(OC3CCN(C(=O)N4CCCO4)CC3)cc2)ccc2cccnc12 [Example 75, Isoxazolidin-2-yl-{4-[4-(8-methyl-quinolin-7-yl)-phenoxy]-piperidin-1-yl}-methanone]"
16,1 to 10,"O=C(CO)N1CCC(Oc2ccc(-c3cnc4ccccc4c3)cc2)CC1 [Example 110, 2-Hydroxy-1-[4-(4-quinolin-3-yl-phenoxy)-piperidin-1-yl]-ethanone, 2HCl]"
